Reference: patent US10407428B2, “Spiro-isoquinoline-1,4′-piperidine compounds having multimodal activity against pain” (ESTEVE PHARMACEUTICALS, S.A., priority 2014, dated 2019)

biological target: human σ1 receptor and human μ-opioid receptor; assay: Human σ1 receptor radioligand assay and human μ-opioid receptor radioligand assay (μ and σ1 dual binding); parameters: key to μ and σ1 dual binding: +: Both Ki-μ and Ki-σ1>=500 nM; ++: One Ki<500 nM while the other Ki is >=500 nM; +++: Both Ki-μ and Ki-σ1<500 nM; ++++: Both Ki-μ and Ki-σ1<100 nM; conditions: not given

SMILES	Ki [nM]	μ and σ1 dual binding
CN1CCc2ccccc2C12CCN(CC(=O)c1ccccc1)CC2 [Example 69, 2-(2-methyl-3,4-dihydro-2H-spiro[isoquinoline-1,4′-piperidine]-1′-yl)-1-phenylethanone]	< 500	
CN1CCc2ccccc2C12CCN(CC(=O)N1CCOCC1)CC2 [Example 70, 2-(2-methyl-3,4-dihydro-2H-spiro[isoquinoline-1,4′-piperidine]-1′-yl)-1-morpholinoethanone]	< 500	
CN1CCc2ccccc2C12CCN(CC(=O)N1CCCCC1)CC2 [Example 71, 2-(2-methyl-3,4-dihydro-2H-spiro[isoquinoline-1,4′-piperidine]-1′-yl)-1-(piperidin-1-yl)ethanone]	< 500	
CN(C(=O)CN1CCC2(CC1)c1ccccc1CCN2C)c1ccccc1 [Example 72, N-methyl-2-(2-methyl-3,4-dihydro-2H-spiro[isoquinoline-1,4′-piperidine]-1′-yl)-N-phenylacetamide]		++
CN(C)C(=O)CN1CCC2(CC1)c1ccccc1CCN2C [Example 73, N,N-dimethyl-2-(2-methyl-3,4-dihydro-2H-spiro[isoquinoline-1,4′-piperidine]-1′-yl)acetamide]		++
CN1CCc2ccccc2C12CCN(CCC1CCOCC1)CC2 [Example 74, 2-methyl-1′-(2-(tetrahydro-2H-pyran-4-yl)ethyl)-3,4-dihydro-2H-spiro[isoquinoline-1,4′-piperidine]]	< 500	
CN1CCc2ccccc2C12CCN(CCc1ccccn1)CC2 [Example 75, 2-methyl-1′-(2-(pyridin-2-yl)ethyl)-3,4-dihydro-2H-spiro[isoquinoline-1,4′-piperidine]]	< 500	
CN1CCc2ccccc2C12CCN(CCc1cccnc1)CC2 [Example 76, 2-methyl-1′-(2-(pyridin-3-yl)ethyl)-3,4-dihydro-2H-spiro[isoquinoline-1,4′-piperidine]]	< 500	
COCCN1CCC2(CC1)c1ccccc1CCN2C [Example 77, 1′-(2-methoxyethyl)-2-methyl-3,4-dihydro-2H-spiro[isoquinoline-1,4′-piperidine]]		++
CC(C)OCCN1CCC2(CC1)c1ccccc1CCN2C [Example 78, 1′-(2-isopropoxyethyl)-2-methyl-3,4-dihydro-2H-spiro[isoquinoline-1,4′-piperidine]]	< 500	
CN1CCc2ccccc2C12CCN(CCN1CCCCC1)CC2 [Example 79, 2-methyl-1′-(2-(piperidin-1-yl)ethyl)-3,4-dihydro-2H-spiro[isoquinoline-1,4′-piperidine]]	< 500	
CN(C(=O)CCN1CCC2(CC1)c1ccccc1CCN2C)c1ccccc1 [Example 81, N-methyl-3-(2-methyl-3,4-dihydro-2H-spiro[isoquinoline-1,4′-piperidine]-1′-yl)-N-phenylpropanamide]		++
CN1CCc2ccccc2C12CCN(Cc1ccccn1)CC2 [Example 82, 2-methyl-1′-(pyridin-2-ylmethyl)-3,4-dihydro-2H-spiro[isoquinoline-1,4′-piperidine]]	< 500	
CN1CCc2ccccc2C12CCN(Cc1ccncc1)CC2 [Example 83, 2-methyl-1′-(pyridin-4-ylmethyl)-3,4-dihydro-2H-spiro[isoquinoline-1,4′-piperidine]]		++
CN1CCc2ccccc2C12CCN(Cc1cccnc1)CC2 [Example 84, 2-methyl-1′-(pyridin-3-ylmethyl)-3,4-dihydro-2H-spiro[isoquinoline-1,4′-piperidine]]	< 500	
CC(C(=O)N1CCC(F)CC1)N1CCC2(CC1)c1ccccc1CCN2C (stereo not drawn) [Example 86, 1-(4-fluoropiperidin-1-yl)-2-(2-methyl-3,4-dihydro-2H-spiro[isoquinoline-1,4′-piperidine]-1′-yl)propan-1-one]		++
CC(C)CN(C)C(=O)CN1CCC2(CC1)c1ccccc1CCN2C [Example 87, N-isobutyl-N-methyl-2-(2-methyl-3,4-dihydro-2H-spiro[isoquinoline-1,4′-piperidine]-1′-yl)acetamide]		++
CN1CCc2ccccc2C12CCN(CC(=O)N1CCCC(F)(F)C1)CC2 [Example 88, 1-(3,3-difluoropiperidin-1-yl)-2-(2-methyl-3,4-dihydro-2H-spiro[isoquinoline-1,4′-piperidine]-1′-yl)ethanone]		++
CCN(C(=O)CN1CCC2(CC1)c1ccccc1CCN2C)C(C)C [Example 89, N-ethyl-N-isopropyl-2-(2-methyl-3,4-dihydro-2H-spiro[isoquinoline-1,4′-piperidine]-1′-yl)acetamide]	< 500	

SMILES	Ki [nM]	μ and σ1 dual binding
CN1CCc2ccccc2C12CCN(CC(=O)N1CCCC1)CC2 [Example 90, 2-(2-methyl-3,4-dihydro-2H-spiro[isoquinoline-1,4′-piperidine]-1′-yl)-1-(pyrrolidin-1-yl)ethanone]		++
CN1CCc2ccccc2C12CCN(CC(=O)N1CCC(C(F)(F)F)CC1)CC2 [Example 91, 2-(2-methyl-3,4-dihydro-2H-spiro[isoquinoline-1,4′-piperidine]-1′-yl)-1-(4-(trifluoromethyl)piperidin-1-yl)ethanone]	< 500	
CN1CCc2ccccc2C12CCN(CC(=O)N1CCC(F)(F)C1)CC2 [Example 92, 1-(3,3-difluoropyrrolidin-1-yl)-2-(2-methyl-3,4-dihydro-2H-spiro[isoquinoline-1,4′-piperidine]-1′-yl)ethanone]		++
CN(Cc1ccccc1)C(=O)CN1CCC2(CC1)c1ccccc1CCN2C [Example 93, N-benzyl-N-methyl-2-(2-methyl-3,4-dihydro-2H-spiro[isoquinoline-1,4′-piperidine]-1′-yl)acetamide]	< 100	
CN1CCc2ccccc2C12CCN(CC(=O)N1CC[C@H](F)C1)CC2 [Example 94, (S)-1-(3-fluoropyrrolidin-1-yl)-2-(2-methyl-3,4-dihydro-2H-spiro[isoquinoline-1,4′-piperidine]-1′-yl)ethanone]		++
CN1CCc2ccccc2C12CCN(CC(=O)N1CC[C@@H](F)C1)CC2 [Example 95, (R)-1-(3-fluoropyrrolidin-1-yl)-2-(2-methyl-3,4-dihydro-2H-spiro[isoquinoline-1,4′-piperidine]-1′-yl)ethanone]		++
CN1CCc2ccccc2C12CCN(CC(O)c1cccnc1)CC2 (stereo not drawn) [Example 96, 2-(2-methyl-3,4-dihydro-2H-spiro[isoquinoline-1,4′-piperidine]-1′-yl)-1-(pyridin-3-yl)etanol]		++
CN1CCc2ccccc2C12CCN(CC(O)c1ccccn1)CC2 (stereo not drawn) [Example 97, 2-(2-methyl-3,4-dihydro-2H-spiro[isoquinoline-1,4′-piperidine]-1′-yl)-1-(pyridin-2-yl)ethanol]		++
CN1CCc2ccccc2C12CCN(CC(O)c1ccncc1)CC2 (stereo not drawn) [Example 98, 2-(2-methyl-3,4-dihydro-2H-spiro[isoquinoline-1,4′-piperidine]-1′-yl)-1-(pyridin-4-yl)ethanol]	< 500	
CN1CCc2ccccc2C12CCN(C[C@H](O)c1ccncc1)CC2 [Example 99, (R)-2-(2-methyl-3,4-dihydro-2H-spiro[isoquinoline-1,4′-piperidine]-1′-yl)-1-(pyridin-4-yl)ethanol]	< 500	
CN1CCc2ccccc2C12CCN(C[C@@H](O)c1ccncc1)CC2 [Example 100, (S)-2-(2-methyl-3,4-dihydro-2H-spiro[isoquinoline-1,4′-piperidine]-1′-yl)-1-(pyridin-4-yl)ethanol]	< 500	
CCN(CC1CC1)C(=O)CN1CCC2(CC1)c1ccccc1CCN2C [Example 101, N-(cyclopropylmethyl)-N-ethyl-2-(2-methyl-3,4-dihydro-2H-spiro[isoquinoline-1,4′-piperidine]-1′-yl)acetamide]	< 500	
CC(C)N(C(=O)CN1CCC2(CC1)c1ccccc1CCN2C)C(C)C [Example 102, N,N-diisopropyl-2-(2-methyl-3,4-dihydro-2H-spiro[isoquinoline-1,4′-piperidine]-1′-yl)acetamide]		++
CC(C)N(C)C(=O)CN1CCC2(CC1)c1ccccc1CCN2C [Example 103, N-isopropyl-N-methyl-2-(2-methyl-3,4-dihydro-2H-spiro[isoquinoline-1,4′-piperidine]-1′-yl)acetamide]	< 500	
CCN(CC(C)C)C(=O)CN1CCC2(CC1)c1ccccc1CCN2C [Example 104, N-ethyl-N-isobutyl-2-(2-methyl-3,4-dihydro-2H-spiro[isoquinoline-1,4′-piperidine]-1′-yl)acetamide]		++
CCCN(CC)C(=O)CN1CCC2(CC1)c1ccccc1CCN2C [Example 105, N-ethyl-2-(2-methyl-3,4-dihydro-2H-spiro[isoquinoline-1,4′-piperidine]-1′-yl)-N-propylacetamide]		++
CCN(C(=O)CN1CCC2(CC1)c1ccccc1CCN2C)C1CC1 [Example 106, N-cyclopropyl-N-ethyl-2-(2-methyl-3,4-dihydro-2H-spiro[isoquinoline-1,4′-piperidine]-1′-yl)acetamide]	< 500	
CCCN(C(=O)CN1CCC2(CC1)c1ccccc1CCN2C)C(C)C [Example 107, N-isopropyl-2-(2-methyl-3,4-dihydro-2H-spiro[isoquinoline-1,4′-piperidine]-1′-yl)-N-propylacetamide]		++

same assay, conditions: combined class for Ki-μ ([3H]-DAMGO, CHO-K1 membranes) and Ki-σ1 ([3H](+)-pentazocine, HEK-293 membranes)

SMILES	Ki [nM]
CN1CCc2ccccc2C12CCN(CCN1CCOCC1=O)CC2 [Example 80, 4-(2-(2-methyl-3,4-dihydro-2H-spiro[isoquinoline-1,4′-piperidine]-1′-yl)ethyl)morpholin-3-one]	≥ 500
CN1CCc2ccccc2C12CCN(CCc1cccc([N+](=O)[O-])c1)CC2 [Example 85, 2-methyl-1′-(3-nitrophenethyl)-3,4-dihydro-2H-spiro[isoquinoline-1,4′-piperidine]]	≥ 500
